The results in this text go back to patent US20230050846A1, “TREATMENT OF HEPATIC AND CARDIOVASCULAR DISORDERS” (LIFESEARCH, priority 2019, published 2023).

Data set [1] can be described thus: Pharmacokinetics in mice (plasma, LC-MS/MS). Type of data set: in vivo, mouse. To be noted: 25 mg/kg; for MRT: read-out: MRT (mean residence time). How it is done:
The peptide of formula (I) and the peptide of formula (II) were analyzed in mouse EDTA plasma using a validated assay involving trypsin proteolysis and the subsequent analysis of a signature peptide (SEQ ID NO: 3) by liquid chromatography-tandem mass spectrometry (LC-MS/MS). The working solution of unlabeled peptide (SEQ ID NO: 3, 1 mM) was serially diluted in water to obtain 7 standard solutions ranging 0.05-5 μM. Plasma and standard samples (40 μL) were reduced, alkylated and trypsin-digested overnight using the ready-to-use solutions of the ProteinWorks™ eXpress kit (Waters Corporation, Milford, Mass., USA), according to the manufacturer's instructions (except trypsin incubation time optimized to 7 h). The working solution of the labeled proteotypic peptide ([SEQ ID NO: 4]-[^13C6, ^15N4]-K, 1 mM) was used as internal standard (IS) and added to the digestion buffer to a final concentration of 0.5 μM. After digestion, samples were cleaned using 30 mg Oasis HLB 1 cc Cartridges (Waters Corporation). Cartridges were conditioned, equilibrated, loaded, washed and eluted with methanol (1 mL), water (1 mL), samples (˜200 μL), 5% methanol containing 0.1% TFA (1 mL) and 60% methanol containing 0.1% TFA (1 mL), respectively. Eluates were dried under a nitrogen stream, reconstituted with 100 μL of 10% acetonitrile containing 0.1% formic acid, and 10 μL were injected into the LC-MS/MS system. LC-MS/MS analyses were performed on a Xevo® TQD mass spectrometer with an electrospray (ESI) interface and an Acquity H-Class® UPLC™ device (Waters Corporation). Proteotypic peptides were separated over 9 min on an Acquity® BEH C18 column (2.1×100 mm, 1.7 μm, Waters Corporation) held at 60° C. with a linear gradient of mobile phase B (100% acetonitrile) in mobile phase A (5% acetonitrile), each containing 0.1% formic acid, and at a flow rate of 600 μL/min. […] Proteotypic peptides were then detected by the mass spectrometer with the ESI interface operating in the positive ion mode (capillary voltage, 3 kV; desolvatation gas (N2) flow and temperature, 900 L/h and 400° C.; source temperature, 150° C.). The multiple reaction monitoring mode was applied for MS/MS detection (SEQ ID NO: 3, m/z 368.8→536.5, y6^+; [SEQ ID NO: 4]-[^13C6, ^15N4]-K, m/z 372.8→544.4, y6) with cone and collision voltages set at 20 and 14 V, respectively. Data acquisition and analyses were performed with MassLynx® and TargetLynx® software, respectively (version 4.1, Waters Corporation). Chromatographic peak area ratio between unlabeled peptide and IS constituted the detector responses. Standard solutions were used to plot calibration curves for peptide quantification. The linearity was expressed by the mean r^2 which was greater than 0.998 (linear regression, 1/x weighting, origin excluded). […] The peptide of formula (I) and the peptide of formula (II) concentrations were expressed in μM assuming 1 mole of peptide equivalent to 1 mole of the peptide of formula (I) and the peptide of formula (II), respectively. Concentrations were then converted to their standard unit (ng/mL) assuming molecular weights of 3540 Da and 3917 Da for the peptide of formula (I) and the peptide of formula (II), respectively.
Wild-type C57B/L6J male mice were purchased from Janvier Labs (Le Genest Saint Isle, France). Mice were caged in animal rooms under specific pathogen free conditions at the animal facility of Rangueil (Anexplo platform, US006, Toulouse, France) with a light/dark schedule of 12 h/12 h and were fed ad libitum with a normal chow diet (#V1535 R/M-H, Ssniff, Germany). All animal experimental procedures were conducted in accordance with institutional guidelines on animal experimentation approved by the local ethical committee of animal care and are conformed to the guidelines from Directive 2010/63/EU of the European Parliament on the protection of animals used for scientific purposes or the NIH guideline. […]

Another data set has as its system HepG2 cells. Put plainly: Oleate/palmitate-induced steatosis, intracellular triglyceride content. The data set is classed as cell-based, human. To be noted: 1 μM, last 24 h of 48 h oleate/palmitate 0.5 mM (2:1). How it is done:
A solution containing 250 mM palmitate (P0500, Sigma-Aldrich) was first prepared in 0.1 M NaOH at 70 C for 30 min then diluted in DMEM low glucose (D5546, Sigma-Aldrich) containing 10% fatty acid-free BSA (A7030, Sigma-Aldrich) to yield a 10 mM palmitate solution and allowed to dissolve for 30 min at 37° C., filter sterilized and stored in glass vial at −20 C until use. This palmitate stock solution and ready to use oleate solution (03008, Sigma-Aldrich) were used to prepared a 0.5 mM solution at a 2:1 ratio of oleate to palmitate in complete culture medium containing DMEM low glucose, 10% fetal bovine serum, 1% Penicillin-Streptomycin and 1% fatty acid-free BSA.
HepG2 cell were grown in 12-well plates to 60-70% confluence then exposed for 48 h to culture medium (DMEM low glucose, 10% fetal bovine serum, 1% Penicillin-Streptomycin and 1% fatty acid-free BSA) alone or containing 0.5 mM oleate/palmitate mixture (2:1) to induce steatosis. For the last 24 h of the 48 h period, cells were treated with 1 μM of the peptide of formula (I) or the peptide of formula (II).
(§1) For measurement of intracellular triglyceride content, cells were washed with PBS and scraped in 5% NP-40 lysis buffer and heated for 10 min at 85° C. Triglycerides were then quantified using triglyceride commercial kit (Biolabo #87319). Values were normalized to protein concentration in cell lysates.

For data set [2], the system named is primary mouse hepatocytes. As to the kind of experiment: Steatotic primary mouse hepatocytes, intracellular triglyceride content. Particulars: 1 μM, 24 h. The data set is classed as cell-based. As for the experimental part:
Primary mouse hepatocytes were isolated as described in Example 3 from mice fed western-diet for 11-weeks (Envigo #TD.88137 containing 0.2% cholesterol, 42% kcal from fat, 34% sucrose by weight). Primary mouse hepatocytes were seeded in a 12-well plate at a density of 600,000 cells/well in growth medium and treated for 24 h with apoA-I (10 μg/mL), peptide of formula (I) (1 μM) or peptide of formula (II) (1 μM).
as §1

Setting [3] is: male, C57B/L6J, mouse, plasma, sc.
Where [4] appears, read: male, C57B/L6J, mouse, plasma, sc, sc.
Setting [5] is: male, C57B/L6J, mouse, plasma, sc, sc, read-out: t1/2lbd1 (distribution half-life) (converted).
[6] abbreviates: male, C57B/L6J, mouse, plasma, sc, sc, read-out: t1/2lbdz (elimination half-life) (converted).

Read-outs that look alike come from different tables or passages of the source. Peptide text beside a SMILES is read from it. * marks the point of attachment. Palmitoyl = CCCCCCCCCCCCCCCC(=O)*

For the compound `CCCCCCCCCCCCCCCC(=O)NCCCC[C@H](NC(=O)[C@H](CCC(=O)O)NC(=O)[C@H](CCCNC(=N)N)NC(=O)[C@H](CO)NC(=O)[C@H](CCC(N)=O)NC(=O)[C@H](C)NC(=O)[C@H](CCCNC(=N)N)NC(=O)[C@H](Cc1ccccc1)NC(=O)[C@H](Cc1ccc(O)cc1)NC(=O)[C@H](CCCNC(=N)N)NC(=O)[C@H](CCC(=O)O)NC(=O)[C@H](CCC(=O)O)NC(=O)[C@H](CCC(=O)O)NC(=O)[C@H](C)NC(=O)[C@H](CCC(N)=O)NC(=O)[C@H](CCC(=O)O)NC(=O)[C@H](CCCNC(=N)N)NC(=O)[C@H](CCCCN)NC(=O)CNC(=O)[C@H](Cc1ccccc1)NC(=O)[C@H](C)NC(=O)CNC(=O)CNC(=O)[C@H](C)NC(=O)[C@H](CCC(=O)O)NC(=O)[C@H](CCCNC(=N)N)NC(=O)[C@@H](NC(=O)[C@H](CO)NC(=O)CNC(=O)[C@H](C)NC(=O)CNC(=O)[C@H](CCCNC(=N)N)NC(C)=O)[C@@H](C)CC)C(N)=O` [peptide of formula (II), CH3CO-[SEQ ID NO: 1]-K-[palmitoyl]-NH2] (Ac-RGAGSIREAGGAFGKREQAEEERYFRAQSREK(Palmitoyl)-NH2), in data set [1] (setting [3]), the AUC amounted to 211000 ng·h/mL, the highest concentration (Cmax) came out at 25600 ng/mL and the time to peak (Tmax) worked out at 240 min. For the same compound, in data set [1] (setting [4]), the MRT came out at 349 min. Also, the half-life in data set [1] (setting [5]) is 125 min. Also, the half-life in data set [1] (setting [6]) was 752 min. In addition, in data set [1] (sc), the “Cl (total plasma clearance)” value came to 0.83 mL/min/kg and the “Vd (volume of distribution)” value is given as 1 L/kg. The “reduction of fatty acid-induced intracellular accumulation of triglycerides compared to PBS control” value with HepG2 cells was found to be 32%. In addition, the “intracellular accumulation of triglycerides vs PBS control” value in data set [2] is listed as “significantly reduced”.
For the compound “Ac-RGAGSIREAGGAFGKREQAEEERYFRAQSRE-NH2 [peptide of formula (I), CH3CO-[SEQ ID NO: 1]-NH2]”, the AUC in data set [1] (male, C57B/L6J, mouse, plasma, iv) was 13300 ng·h/mL; in data set [1] (setting [3]), 6140 ng·h/mL. Besides, the MRT in data set [1] (male, C57B/L6J, mouse, plasma, iv, iv) stood at 8.4 min; in data set [1] (setting [4]) it was 33 min. The half-life is 3.6 min in data set [1] (male, C57B/L6J, mouse, plasma, iv, iv, read-out: t1/2lbd1 (distribution half-life) (converted)); 15.6 min in data set [1] (male, C57B/L6J, mouse, plasma, iv, iv, read-out: t1/2lbdz (elimination half-life) (converted)); 11.4 min in data set [1] (setting [5]); 12.6 min in data set [1] (setting [6]). For the same compound, in data set [1] (male, C57B/L6J, mouse, plasma, iv, read-out: Cl (total plasma clearance) (converted)), the clearance was 31.7 mL/min/kg. Besides, in data set [1] (male, C57B/L6J, mouse, plasma, iv, read-out: Vd (volume of distribution)), the Vd worked out at 0.7 L/kg. The maximum concentration (Cmax) in data set [1] (setting [3]) was found to be 8290 ng/mL. In addition, the Tmax in data set [1] (setting [3]) worked out at 15 min. In addition, the “Vd (volume of distribution)” value in data set [1] (sc) was found to be 0.5 L/kg. Besides, in the data set on HepG2 cells, the “reduction of fatty acid-induced intracellular accumulation of triglycerides compared to PBS control” value amounted to 18%. Moreover, the “intracellular accumulation of triglycerides vs PBS control” value in data set [2] was “significantly reduced”.

Usually AUC stands for the area under the concentration-time curve, a measure of exposure. Lower therefore signals low exposure. A word on the Cmax: it is the maximum level reached in the sampled fluid or tissue. One may read the Tmax as the time from dosing to the highest level. For orientation: MRT means a mean duration of stay, worked out from the concentration-time curve. A word on the clearance: it is the rate of elimination divided by the concentration. Broadly, the Vd is a proportionality between amount in the body and measured concentration, not a real space.
